Results on 25 molecules are retold here after patent US20200048267A1, “OGA INHIBITOR COMPOUNDS” (Janssen Pharmaceutica NV, priority 2017, published 2020).

Molecules are shown by their SMILES.

What is called Emax is the maximal effect, on the per cent scale that the assay sets.

Experiment [1] addresses T1, recombinant human Meningioma Expressed Antigen 5 (MGEA5), also referred to as O-GlcNAcase (OGA) (Homo sapiens, UniProt O60502).
T1 construct: Full length OGA enzyme was purchased at OriGene (cat # TP322411); purchased OriGene TP322411
T1 sequence (O60502 1-916): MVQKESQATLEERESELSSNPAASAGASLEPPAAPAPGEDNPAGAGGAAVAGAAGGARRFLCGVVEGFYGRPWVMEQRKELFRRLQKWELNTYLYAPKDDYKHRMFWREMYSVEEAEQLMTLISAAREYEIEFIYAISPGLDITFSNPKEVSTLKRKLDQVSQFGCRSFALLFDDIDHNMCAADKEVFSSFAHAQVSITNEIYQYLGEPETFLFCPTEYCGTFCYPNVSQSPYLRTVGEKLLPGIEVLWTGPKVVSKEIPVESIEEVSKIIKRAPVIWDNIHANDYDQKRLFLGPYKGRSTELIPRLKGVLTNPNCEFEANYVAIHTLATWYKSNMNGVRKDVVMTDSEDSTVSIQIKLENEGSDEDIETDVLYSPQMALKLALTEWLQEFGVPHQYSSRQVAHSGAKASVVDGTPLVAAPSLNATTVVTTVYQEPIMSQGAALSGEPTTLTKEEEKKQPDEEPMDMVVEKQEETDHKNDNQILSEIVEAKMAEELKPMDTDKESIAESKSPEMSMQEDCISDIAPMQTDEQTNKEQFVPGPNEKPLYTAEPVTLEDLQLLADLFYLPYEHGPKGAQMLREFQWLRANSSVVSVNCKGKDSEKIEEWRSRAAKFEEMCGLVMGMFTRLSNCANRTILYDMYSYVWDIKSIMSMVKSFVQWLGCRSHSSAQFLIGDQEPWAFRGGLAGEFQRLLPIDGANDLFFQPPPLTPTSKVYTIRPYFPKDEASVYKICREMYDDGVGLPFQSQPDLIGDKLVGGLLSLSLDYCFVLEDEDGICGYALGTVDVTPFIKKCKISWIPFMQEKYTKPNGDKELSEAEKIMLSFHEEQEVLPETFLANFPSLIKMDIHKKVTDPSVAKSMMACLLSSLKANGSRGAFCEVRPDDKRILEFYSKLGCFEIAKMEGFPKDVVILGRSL
The experiment can be described thus: OGA biochemical assay (inhibition of FM-GlcNAc hydrolysis, fluorescence). The note with it: for Emax: read-out: ENZYMATIC Emax (%); for IC50: read-out: ENZYMATIC hOGA, pIC50 (converted). An excerpt: The assay is based on the inhibition of the hydrolysis of fluorescein mono-β-D-N-Acetyl-Glucosamine (FM-GlcNAc) (Mariappa et al. 2015, Biochem J 470:255) by the recombinant human Meningioma Expressed Antigen 5 (MGEA5), also referred to as O-GlcNAcase (OGA). The hydrolysis FM-GlcNAc (Marker Gene technologies, cat # M1485) results in the formation of B-D-N-glucosamineacetate and fluorescein. The fluorescence of the latter can be measured at excitation wavelength 485 nm and emission wavelength 538 nm. An increase in enzyme activity results in an increase in fluorescence signal. Full length OGA enzyme was purchased at OriGene (cat # TP322411). The enzyme was stored in 25 mM Tris.HCl, pH 7.3, 100 mM glycine, 10% glycerol at −20° C. Thiamet G and GlcNAcStatin were tested as reference compounds (Yuzwa et al. 2008 Nature Chemical Biology 4:483; Yuzwa et al. 2012 Nature Chemical Biology 8:393). The assay was performed in 200 mM Citrate/phosphate buffer supplemented with 0.005% Tween-20. 35.6 g Na2HPO4 2 H2O (Sigma, # C0759) were dissolved in 1 L water to obtain a 200 mM solution. 19.2 g citric acid (Merck, # 1.06580) was dissolved in 1 L water to obtain a 100 mM solution. pH of the sodium phosphate solution was adjusted with the citric acid solution to 7.2. The buffer to stop the reaction consists of a 500 mM Carbonate buffer, pH 11.0. 734 mg FM-GlcNAc were dissolved in 5.48 mL DMSO to obtain a 250 mM solution and was stored at −20° C. OGA was used at 2 nM concentration and FM-GlcNAc at a 100 uM final concentration. Dilutions were prepared in assay buffer.
50 nl of a compound dissolved in DMSO was dispensed on Black Proxiplate™ 384 Plus Assay plates (Perkin Elmer, #6008269) and 3 μl fl-OGA enzyme mix added subsequently. Plates were pre-incubated for 60 min at room temperature and then 2 μl FM-GlcNAc substrate mix added. […] Plates were briefly centrifuged for 1 min at 1000rpm and incubate at room temperature for 6 h. To stop the reaction 5 μl STOP buffer were added and plates centrifuge again 1 min at 1000 rpm.
Fluorescence was quantified in the Thermo Scientific Fluoroskan Ascent or the PerkinElmer EnVision with excitation wavelength 485 nm and emission wavelength 538 nm.
For analysis a best-fit curve is fitted by a minimum sum of squares method. From this an IC50 value and Hill coefficient was obtained. High control (no inhibitor) and low control (saturating concentrations of standard inhibitor) were used to define the minimum and maximum values.

A further experiment addresses T2, OGA (Homo sapiens, UniProt O60502).
T2 construct: HEK293 cells inducible for P301L mutant human Tau (isoform 2N4R) were established at Janssen; endogenous in cells; host or cells: HEK293 cells inducible for P301L mutant human Tau (2N4R)
T2 sequence (O60502 1-916): T1 sequence (O60502 1-916)
Description: OGA cellular assay (ICC detection of O-GlcNAcylated proteins in HEK293 cells inducible for P301L mutant human Tau). It counts as cell-based. To be noted: 6 hours incubation; for EC50: read-out: CELLULAR hOGA, pEC50 (converted). As to the method: HEK293 cells inducible for P301L mutant human Tau (isoform 2N4R) were established at Janssen. Thiamet-G was used for both plate validation (high control) and as reference compound (reference EC50 assay validation). OGA inhibition is evaluated through the immunocytochemical (ICC) detection of O-GlcNAcylated proteins by the use of a monoclonal antibody (CTD110.6; Cell Signaling, #9875) detecting O-GlcNAcylated residues as previously described (Dorfmueller et al. 2010 Chemistry & biology, 17:1250). Inhibition of OGA will result in an increase of O-GlcNAcylated protein levels resulting in an increased signal in the experiment. Cell nuclei are stained with Hoechst to give a cell culture quality control and a rough estimate of immediate compounds toxicity, if any. ICC pictures are imaged with a Perkin Elmer Opera Phenix plate microscope and quantified with the provided software Perkin Elmer Harmony 4.1.
Cells were propagated in DMEM high Glucose (Sigma, #D5796) following standard procedures. 2 days before the cell assay cells are split, counted and seeded in Poly-D-Lysine (PDL) coated 96-wells (Greiner, #655946) plate at a cell density of 12,000 cells per cm^2 (4,000 cells per well) in 100 µl of Assay Medium (Low Glucose medium is used to reduce basal levels of GlcNAcylation) (Park et al. 2014 The Journal of biological chemistry 289:13519). At the day of compound test medium from assay plates was removed and replenished with 90 μl of fresh Assay Medium. 10 μl of compounds at a 10 fold final concentration were added to the wells. Plates were centrifuged shortly before incubation in the cell incubator for 6 hours. DMSO concentration was set to 0.2%. Medium is discarded by applying vacuum. For staining of cells medium was removed and cells washed once with 100 μl D-PBS (Sigma, #D8537). From next step onwards unless other stated assay volume was always 50 μl and incubation was performed without agitation and at room temperature. Cells were fixed in 50 μl of a 4% paraformaldehyde (PFA, Alpha aesar, # 043368) PBS solution for 15 minutes at room temperature. […] Before analysis samples were washed 2 times manually for 5 minutes in ICC base buffer.
Imaging is performed using Perkin Elmer Phenix Opera using a water 20× objective and recording 9 fields per well. Intensity readout at 488 nm is used as a measure of O-GlcNAcylation level of total proteins in wells. To assess potential toxicity of compounds nuclei were counted using the Hoechst staining. IC50-values are calculated using parametric non-linear regression model fitting. As a maximum inhibition Thiamet G at a 200 uM concentration is present on each plate. In addition, a concentration response of Thiamet G is calculated on each plate.

Regarding `CC(=O)Nc1ncc(CN2CCC3(CCN(c4cncnc4)C3)C2)s1` (centres unmarked) [Product 43], in experiment [1], the Emax stood at 99.8% and the IC50 is 53.7 nM.

In the case of `CC(c1ccc2nccnc2c1)N1CCC2(CCN(c3cncc(C4CC4)n3)C2)C1` (centres unmarked) [Product 15], in experiment [1], the Emax is 93.4% and the IC50 was 229 nM.

For `CC(=O)Nc1ncc(CN2CCC3(CCN(c4ccnc(C)c4)C3)C2)s1` (centres unmarked) [Product 52], in experiment [1], the Emax was 100% and the IC50 is 16.2 nM. At OGA, the Emax came to 73.7% and the EC50 is 209 nM.

As to `CC(=O)Nc1ncc(CN2CCC3(CCN(c4cncc(C5CC5)n4)C3)C2)s1` (centres unmarked) [Product 13], in experiment [1], the “ENZYMATIC hOGA; pIC50” value was 7.69 and the Emax turned out to be 100%. The molecule further came in with an Emax on OGA of 92.3%.

As for `Cc1cc(N2CCC3(CCN(C(C)c4cnc5c(c4)OCCO5)C3)C2)cc(C)n1` (centres unmarked) [Product 37], in experiment [1], the Emax came to 99% and the IC50 was 182 nM. Moreover, at OGA, the Emax turned out to be 20.4% and the EC50 is more than 1000 nM.

For the molecule `CC(=O)Nc1ncc(CN2CCC3(CCN(Cc4cc(C)nc(C)c4)C3)C2)s1` (centres unmarked) [Product 17], in experiment [1], the Emax came to 90.6% and the IC50 is 562 nM.

On to `CC(=O)Nc1ncc(CN2CCC3(CCN(c4nc(C)ncc4C)C3)C2)s1` (centres unmarked) [Product 54], for which, in experiment [1], the Emax stood at 101% and the IC50 was 28.2 nM.

Consider `CC(=O)Nc1ncc(CN2CCC3(CCN(c4ccc(C)nc4)C3)C2)s1` (centres unmarked) [Product 44], for which, in experiment [1], the Emax was 102% and the IC50 was 33.9 nM.

For the molecule `Cc1cc(N2CCC3(CCN(C(C)c4ccc5c(c4)OCO5)C3)C2)nc(C)n1` (centres unmarked) [Product 10], in experiment [1], the maximal response (Emax) is 99.8% and the IC50 was 135 nM.

Consider `CC(=O)Nc1ncc(CN2CCC3(CCN(c4ccc(C)nc4C#N)C3)C2)s1` (centres unmarked) [Product 57], for which, in experiment [1], the Emax was determined as 101% and the IC50 is 26.3 nM. Moreover, at OGA, the Emax was 56.1% and the EC50 is 794 nM.

For `CC(=O)Nc1ncc(CN2CCC3(CCN(c4cc(C)nc(C)c4)C3)C2)s1` (single isomer, unassigned) [Product 3], in experiment [1], the “ENZYMATIC Emax (%)” value was determined as 100.9% and the IC50 was 3.72 nM. At OGA, the Emax amounted to 100% and the EC50 is 282 nM.

As to `Cc1cc(N2CCC3(CCN(Cc4ccc5nccnc5c4)C3)C2)cc(C)n1` (single isomer, unassigned) [Product 5], in experiment [1], the “ENZYMATIC Emax (%)” value stood at 98.6% and the IC50 is 219 nM.

`CC(=O)Nc1ncc(CN2CCC3(CCN(c4cc(F)ncc4C)C3)C2)s1` (centres unmarked) [Product 56]: in experiment [1], the Emax came to 100% and the IC50 was 51.3 nM.

Take `Cc1cc(N2CCC3(CCN(C(C)c4ccc5nccnc5c4)C3)C2)cc(C)n1` (centres unmarked) [Product 6]: in experiment [1], the Emax came out at 97.8% and the IC50 was 97.7 nM.

As to `CC(=O)Nc1ncc(CN2CCC3(CCN(c4nc(C)cnc4C)C3)C2)s1` (centres unmarked) [Product 40], in experiment [1], the Emax is 98.4% and the IC50 was 66.1 nM.

With `Cc1cc(N2CCC3(CCN(C(C)c4ccc5c(c4)OCO5)C3)C2)cc(C)n1` (centres unmarked) [Product 8], in experiment [1], the Emax stood at 96.6% and the IC50 is 100 nM.

For the molecule `CC(=O)Nc1ncc(CN2CCC3(CCN(c4cncc(C)n4)C3)C2)s1` (centres unmarked) [Product 12], in experiment [1], the Emax was found to be 101% and the IC50 is 34.7 nM.

For `CC(=O)Nc1ncc(CN2CCC3(CCN(Cc4ccc(C(F)(F)F)cn4)C3)C2)s1` (centres unmarked) [Product 35], in experiment [1], the Emax stood at 84.4% and the IC50 is 2000 nM.

`CC(=O)Nc1ncc(CN2CCC3(CCN(c4nnc(C)cc4C)C3)C2)s1` (centres unmarked) [Product 55]: in experiment [1], the Emax was 99% and the IC50 is 45.7 nM.

Consider `c1cnc2cc(CN3CCC4(CCN(c5cncc(C6CC6)n5)C4)C3)ccc2n1` (centres unmarked) [Product 14], for which, in experiment [1], the Emax stood at 94.2% and the IC50 was 724 nM.

Consider `COc1nc(C)ccc1N1CCC2(CCN(Cc3cnc(NC(C)=O)s3)C2)C1` (centres unmarked) [Product 53], for which, in experiment [1], the maximal effect (Emax) amounted to 97.1% and the IC50 is 309 nM.

As for `CC(=O)Nc1ncc(CN2CCC3(CCN(c4cnc(C)nc4)C3)C2)s1` (centres unmarked) [Product 45], in experiment [1], the Emax turned out to be 99.2% and the IC50 was 61.7 nM.

With `CC(=O)Nc1ncc(CN2CCC3(CCN(c4cnccn4)C3)C2)s1` (centres unmarked) [Product 11], in experiment [1], the Emax is 99.1% and the IC50 is 81.3 nM.

Take `CC(=O)Nc1ncc(CN2CCC3(CCN(c4ncc(F)cc4F)C3)C2)s1` (centres unmarked) [Product 46]: in experiment [1], the maximal effect (Emax) was found to be 99% and the IC50 was 112 nM.

As to `CC(=O)Nc1ncc(CN2CCC3(CCN(c4cc(C)nc(C)c4)C3)C2)s1` (single isomer, unassigned) [Product 2], in experiment [1], the Emax was 101% and the IC50 is 10.2 nM.
